logP data for 75 compounds are collected here from the SangsterLogP compilation.

As a reminder, the logP is the decadic logarithm of the partition coefficient of the neutral form, usually between octanol and water. A higher logP goes with higher lipophilicity.

This data set in a line: method code SF-GLC, from DOI: 10.1016/0045-6535(89)90321-4.
Compound `Clc1cc2c(c(Cl)c1Cl)Oc1c(Cl)cccc1O2` gave a logP of 6.39.
In the case of `Clc1cc(Cl)c2c(oc3c(Cl)cccc32)c1Cl`, the lipophilicity (logP) amounted to 6.31.
Take `Clc1ccc2c(c1)Oc1c(Cl)c(Cl)cc(Cl)c1O2`: the logP was found to be 6.25. This logP and that of the compound before are within 0.2 log units of each other.
The compound `Clc1cc2c(oc3c(Cl)c(Cl)ccc32)c(Cl)c1Cl` displayed a log partition coefficient (logP) of 6.47.
As for `Clc1ccc2c(c1)Oc1c(Cl)cc(Cl)c(Cl)c1O2`, the logP is 6.25.
In the case of `Clc1ccc2c(c1)Oc1cc(Cl)c(Cl)c(Cl)c1O2`, the logP was 6.1.
As for `Clc1cc(Cl)c2c(c1)oc1cc(Cl)cc(Cl)c12`, the logP turned out to be 6.34.
`Clc1cc2c(c(Cl)c1Cl)Oc1c(Cl)ccc(Cl)c1O2` gave a lipophilicity (logP) of 6.24.
In the case of `Clc1cc2oc3c(Cl)c(Cl)ccc3c2cc1Cl`, the log partition coefficient (logP) was found to be 6.31.
For the compound `Clc1cc2c(c(Cl)c1Cl)Oc1c(Cl)c(Cl)cc(Cl)c1O2`, the logP amounted to 7.59.
Consider `Clc1cc(Cl)c2c(c1Cl)Oc1c(Cl)c(Cl)cc(Cl)c1O2`, for which the logP is 6.85.
Under `Clc1cc(Cl)c2c(c1)Oc1c(cc(Cl)c(Cl)c1Cl)O2` stands 6.53; under `Clc1cc(Cl)c2oc3c(Cl)cc(Cl)c(Cl)c3c2c1`, 6.34; under `Clc1cc(Cl)c2oc3c(Cl)c(Cl)c(Cl)cc3c2c1`, 6.59.
`Clc1cc2c(cc1Cl)Oc1c(cc(Cl)c(Cl)c1Cl)O2` showed a lipophilicity (logP) of 6.64.
`Clc1cc2c(oc3c(Cl)c(Cl)c(Cl)c(Cl)c32)c(Cl)c1Cl` showed a logP of 7.92.
Regarding `Clc1cc(Cl)c2c(c1)Oc1c(Cl)c(Cl)c(Cl)c(Cl)c1O2`, the lipophilicity (logP) amounted to 6.85.
With `Clc1cc(Cl)c2c(c1)Oc1cc(Cl)c(Cl)c(Cl)c1O2`, the log partition coefficient (logP) worked out at 6.4.
As to `Clc1ccc2c(c1)Oc1c(Cl)c(Cl)c(Cl)c(Cl)c1O2`, the log partition coefficient (logP) was found to be 6.6.
For `Clc1cc(Cl)c2oc3cc(Cl)c(Cl)c(Cl)c3c2c1` the value was 6.33.
Under `Clc1c(Cl)c(Cl)c2c(oc3ccccc32)c1Cl` stands 6.17.
`Clc1cc(Cl)c2c(oc3c(Cl)ccc(Cl)c32)c1Cl` registered a logP of 6.34.
As for `Clc1cc(Cl)c2c(c1)Oc1cc(Cl)c(Cl)cc1O2`, the logP was found to be 6.3.
On to `Clc1cc2oc3ccc(Cl)c(Cl)c3c2cc1Cl`, for which the lipophilicity (logP) came out at 6.23.
Regarding `Clc1ccc(Cl)c2c1oc1c(Cl)ccc(Cl)c12`, the logP was 5.6.
`Clc1cc(Cl)c2c(c1Cl)Oc1cccc(Cl)c1O2` registered a log partition coefficient (logP) of 6.1.
The compound `Clc1ccc2oc3cc(Cl)c(Cl)c(Cl)c3c2c1` returned a log partition coefficient (logP) of 6.15.
Consider `Clc1cc2c(oc3c(Cl)ccc(Cl)c32)c(Cl)c1Cl`, for which the log partition coefficient (logP) is 6.53.
Take `Clc1ccc2c(c1)oc1c(Cl)c(Cl)c(Cl)c(Cl)c12`: the log partition coefficient (logP) was 6.53.
With `Clc1cc(Cl)c2c(oc3cccc(Cl)c32)c1Cl`, the log partition coefficient (logP) was found to be 5.89.
`Clc1cc2c(cc1Cl)Oc1c(Cl)ccc(Cl)c1O2` gave a log partition coefficient (logP) of 6.39.
On to `Clc1cc(Cl)c2c(c1Cl)Oc1c(Cl)ccc(Cl)c1O2`, for which the logP is 6.6.
`Clc1cc(Cl)c2c(c1)Oc1cc(Cl)cc(Cl)c1O2` yielded a logP of 6.39.
Compound `Clc1ccc(Cl)c2c1Oc1c(Cl)ccc(Cl)c1O2` registered a log partition coefficient (logP) of 6.38.
On to `Clc1cc(Cl)c2c(c1)oc1c(Cl)cc(Cl)cc12`, for which the log partition coefficient (logP) came out at 6.37.
Under `Clc1ccc2c(oc3c(Cl)cc(Cl)c(Cl)c32)c1Cl` stands 6.27; under `Clc1cc(Cl)c2c(c1)Oc1c(Cl)cc(Cl)cc1O2`, 6.29; under `Clc1cc(Cl)c2c(c1)oc1c(Cl)c(Cl)cc(Cl)c12`, 6.33.
With `Clc1ccc2oc3c(Cl)cc(Cl)c(Cl)c3c2c1`, the log partition coefficient (logP) was 6.31.
As to `Clc1cc(Cl)c2oc3c(Cl)c(Cl)cc(Cl)c3c2c1`, the log partition coefficient (logP) worked out at 6.24.
`Clc1cc(Cl)c2c(oc3ccc(Cl)c(Cl)c32)c1Cl` returned a logP of 6.51.
For `Clc1cc2oc3c(Cl)c(Cl)ccc3c2c(Cl)c1Cl`, the logP came to 6.26.
`Clc1cc(Cl)c2oc3c(Cl)c(Cl)ccc3c2c1` showed a lipophilicity (logP) of 6.25.
On to `Clc1ccc2c(c1)Oc1c(cc(Cl)c(Cl)c1Cl)O2`, for which the lipophilicity (logP) came to 6.1.
As for `Clc1ccc2c(oc3ccc(Cl)c(Cl)c32)c1Cl`, the logP stood at 6.25.
For the compound `Clc1cc(Cl)c2c(c1)Oc1c(Cl)ccc(Cl)c1O2`, the logP came to 6.25.
`Clc1cc2c(oc3ccc(Cl)c(Cl)c32)c(Cl)c1Cl` came in with a logP of 6.42. The logP values of the last two compounds are within 0.2 log units of each other.
In the case of `Clc1cc(Cl)c2c(c1Cl)Oc1c(Cl)cccc1O2`, the logP is 6.1.
As for `Clc1cc(Cl)c2c(c1)Oc1ccc(Cl)c(Cl)c1O2`, the log partition coefficient (logP) is 6.86.
For `Clc1ccc2oc3c(Cl)c(Cl)cc(Cl)c3c2c1` the value was 6.13; for `Clc1cc2c(cc1Cl)Oc1cc(Cl)c(Cl)cc1O2`, 6.42; for `Clc1cc2c(c(Cl)c1Cl)Oc1c(Cl)cc(Cl)c(Cl)c1O2`, 7.59.
In the case of `Clc1ccc2c(c1)oc1c(Cl)c(Cl)cc(Cl)c12`, the logP amounted to 6.23.
Under `Clc1ccc2oc3c(Cl)c(Cl)c(Cl)c(Cl)c3c2c1` stands 6.79; under `Clc1cc2c(c(Cl)c1Cl)Oc1ccc(Cl)c(Cl)c1O2`, 6.74.
`Clc1cc2c(c(Cl)c1Cl)Oc1cccc(Cl)c1O2` had a log partition coefficient (logP) of 6.86.
`Clc1cc(Cl)c2c(c1)Oc1c(ccc(Cl)c1Cl)O2` had a logP of 6.43.
Compound `Clc1cc2oc3c(Cl)cc(Cl)c(Cl)c3c2cc1Cl` registered a log partition coefficient (logP) of 6.26.
Under `Clc1cc2oc3c(Cl)cccc3c2c(Cl)c1Cl` stands 6.15; under `Clc1cc(Cl)c2oc3c(Cl)cc(Cl)cc3c2c1`, 6.17; under `Clc1cc2c(cc1Cl)Oc1c(ccc(Cl)c1Cl)O2`, 6.38.
Compound `Clc1cc2c(oc3c(Cl)cccc32)c(Cl)c1Cl` gave a log partition coefficient (logP) of 6.11.
The compound `Clc1cc2oc3cccc(Cl)c3c2c(Cl)c1Cl` gave a log partition coefficient (logP) of 6.06.
Compound `Clc1cc(Cl)c2c(c1)oc1cc(Cl)c(Cl)cc12` showed a logP of 6.34.
As for `Clc1cc(Cl)c2oc3cc(Cl)c(Cl)cc3c2c1`, the log partition coefficient (logP) turned out to be 6.73.
Consider `Clc1cc(Cl)c2c(c1)oc1c(Cl)cc(Cl)c(Cl)c12`, for which the logP was found to be 6.19.
As to `Clc1cc(Cl)c2c(c1)oc1ccc(Cl)c(Cl)c12`, the logP turned out to be 6.25.
Compound `Clc1cc(Cl)c2c(c1Cl)Oc1c(Cl)cc(Cl)c(Cl)c1O2` showed a logP of 6.85.
Take `Clc1ccc2c(oc3c(Cl)ccc(Cl)c32)c1Cl`: the logP came to 6.15.
`Clc1cc2c(cc1Cl)Oc1c(Cl)c(Cl)cc(Cl)c1O2` displayed a logP of 6.2.
For `Clc1ccc2c(c1)oc1c(Cl)c(Cl)c(Cl)cc12`, the logP is 6.06.
For `Clc1ccc2c(oc3c(Cl)c(Cl)cc(Cl)c32)c1Cl` the value was 6.19.
The compound `Clc1cccc2c1Oc1c(Cl)c(Cl)c(Cl)c(Cl)c1O2` returned a logP of 6.3.
Under `Clc1cc2c(oc3cccc(Cl)c32)c(Cl)c1Cl` stands 6.17; under `Clc1cc(Cl)c2oc3c(Cl)ccc(Cl)c3c2c1Cl`, 6.59.
